Test results: patent US20250352668A1, “AAV VECTOR ENCODING DIAMINE OXIDASE AND USES THEREOF” (OYSTER POINT PHARMA, INC., priority 2022, published 2025)

Tests used:
[1] = biological target: T1, nAChR subtype alpha7 (Homo sapiens, UniProt P36544); conditions: cited from earlier work
T1 construct: expressed in transfected cells

[2] = biological target: T2, nAChR subtype alpha3beta4 (Homo sapiens, UniProt P30926+P32297); conditions: cited from earlier work
T2 construct: expressed in transfected cells

[3] = biological target: T3, nAChR subtype alpha4beta2 (Homo sapiens, UniProt P17787+P43681); conditions: cited from earlier work
T3 construct: expressed in transfected cells

[4] = biological target: T4, nAChR subtype alpha3alpha5beta4 (Homo sapiens, UniProt P30926+P32297); conditions: cited from earlier work
T4 construct: expressed in transfected cells

[5] = biological target: T5, nAChR subtype alpha4alpha6beta2 (Homo sapiens, UniProt P17787+P43681+Q15825); conditions: cited from earlier work
T5 construct: expressed in transfected cells

[6] = biological target: T6, nAChR subtype alpha3beta2 (Homo sapiens, UniProt P17787+P32297); conditions: cited from earlier work
T6 construct: expressed in transfected cells

[7] = biological target: T7, nAChR subtype alpha6beta2 (Homo sapiens, UniProt P17787+Q15825); conditions: cited from earlier work
T7 construct: expressed in transfected cells

[8] = biological target: T1, nAChR subtype alpha7; assay: nAChR agonist response (ACh-normalised evoked current), subtype alpha7; type: cell-based; conditions: 300 micromolar concentration
Text: In general, a nAChR agonist is a full agonist if it evokes a response upon binding to a given receptor that is equal or greater to that of ACh.
nAChR agonist response, from which receptor activation can be determined can, for example, be generated using an appropriate cell-based assay. Cells designed to express a particular nAChR receptor subtype and generate an electrical current response when bound to and activated by a nAChR agonist can be used to characterize the agonist profile of a compound and the amount of receptor activation thus determined. An example of a generic protocol is described below.
Cells that express a particular human nAChR subtype are first exposed to ACh. ACh binds and activates the receptor, thereby evoking a current. The concentration of the ACh is chosen to elicit the maximum response of the receptor (e.g., 1280 micromolar ACh). This current is recorded as the ACh response and serves as the 100% nAChR agonist response and to which responses to other nAChR agonists are compared. […]
The current evoked by exposure to the nAChR agonist is measured and recorded for each nAChR concentration. […] The nAChR agonist response is then calculated as a percentage of the ACh response.
A nAChR agonist evoking a response equal to or greater than the maximum ACh response determined at the same receptor type is a full agonist. […]

T1 sequence (P36544 23-502): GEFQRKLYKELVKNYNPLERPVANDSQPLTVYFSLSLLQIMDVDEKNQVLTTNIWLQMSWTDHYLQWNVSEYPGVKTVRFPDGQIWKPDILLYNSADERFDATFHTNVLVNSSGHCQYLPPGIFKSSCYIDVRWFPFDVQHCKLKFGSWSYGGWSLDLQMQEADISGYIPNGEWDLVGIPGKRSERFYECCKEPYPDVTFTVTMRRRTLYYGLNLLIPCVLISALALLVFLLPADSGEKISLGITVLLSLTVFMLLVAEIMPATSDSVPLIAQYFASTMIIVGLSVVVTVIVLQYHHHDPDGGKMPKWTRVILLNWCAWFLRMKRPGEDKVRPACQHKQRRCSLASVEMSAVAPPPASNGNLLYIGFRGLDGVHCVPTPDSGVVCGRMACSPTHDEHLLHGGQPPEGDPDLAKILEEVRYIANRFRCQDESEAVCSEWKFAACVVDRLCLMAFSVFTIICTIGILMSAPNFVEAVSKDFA
T5 sequence (P43681 29-627 limits assumed): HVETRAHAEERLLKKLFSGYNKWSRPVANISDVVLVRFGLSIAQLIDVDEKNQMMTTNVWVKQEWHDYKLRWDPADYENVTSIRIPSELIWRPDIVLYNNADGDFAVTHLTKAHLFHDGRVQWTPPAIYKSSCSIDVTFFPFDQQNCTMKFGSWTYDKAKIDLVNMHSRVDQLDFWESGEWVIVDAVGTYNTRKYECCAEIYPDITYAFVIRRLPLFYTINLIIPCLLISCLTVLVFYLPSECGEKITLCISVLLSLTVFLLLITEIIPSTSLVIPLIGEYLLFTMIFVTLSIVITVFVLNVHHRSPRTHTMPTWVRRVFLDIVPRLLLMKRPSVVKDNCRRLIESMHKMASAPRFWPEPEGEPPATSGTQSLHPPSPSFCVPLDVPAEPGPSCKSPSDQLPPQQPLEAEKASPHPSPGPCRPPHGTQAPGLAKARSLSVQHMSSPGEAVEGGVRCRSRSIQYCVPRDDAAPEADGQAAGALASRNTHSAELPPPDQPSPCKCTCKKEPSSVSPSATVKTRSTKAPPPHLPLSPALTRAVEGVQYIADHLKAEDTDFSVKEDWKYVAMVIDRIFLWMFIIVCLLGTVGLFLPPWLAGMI
T5 sequence (Q15825 26-494): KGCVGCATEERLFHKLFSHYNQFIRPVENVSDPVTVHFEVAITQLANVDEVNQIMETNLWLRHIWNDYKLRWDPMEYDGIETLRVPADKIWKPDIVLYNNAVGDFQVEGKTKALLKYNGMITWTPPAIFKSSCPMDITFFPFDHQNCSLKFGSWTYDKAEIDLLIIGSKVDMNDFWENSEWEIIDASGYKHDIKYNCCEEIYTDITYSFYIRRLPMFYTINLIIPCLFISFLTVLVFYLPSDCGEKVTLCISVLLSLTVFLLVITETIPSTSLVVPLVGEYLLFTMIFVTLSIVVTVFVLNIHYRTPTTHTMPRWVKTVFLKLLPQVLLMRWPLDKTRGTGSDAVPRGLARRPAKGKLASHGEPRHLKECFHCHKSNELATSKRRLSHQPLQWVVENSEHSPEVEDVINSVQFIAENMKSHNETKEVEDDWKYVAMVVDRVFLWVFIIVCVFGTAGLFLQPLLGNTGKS
T5 sequence (P17787 26-502): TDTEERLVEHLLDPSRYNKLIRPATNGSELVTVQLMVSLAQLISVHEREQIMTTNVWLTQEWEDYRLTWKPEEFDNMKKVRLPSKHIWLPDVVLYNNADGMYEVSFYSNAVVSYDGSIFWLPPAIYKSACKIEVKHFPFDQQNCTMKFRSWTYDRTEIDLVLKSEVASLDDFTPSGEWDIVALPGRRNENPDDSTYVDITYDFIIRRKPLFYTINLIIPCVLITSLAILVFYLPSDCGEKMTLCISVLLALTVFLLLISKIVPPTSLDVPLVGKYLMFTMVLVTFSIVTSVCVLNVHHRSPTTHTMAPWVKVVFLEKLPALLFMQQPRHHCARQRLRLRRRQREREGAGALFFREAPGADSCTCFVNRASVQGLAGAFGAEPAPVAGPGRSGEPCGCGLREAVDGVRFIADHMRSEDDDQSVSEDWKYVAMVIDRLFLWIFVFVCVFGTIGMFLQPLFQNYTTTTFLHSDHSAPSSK
T3 sequence (P43681 29-627 limits assumed): as the sequence (P43681 29-627 limits assumed) above
T3 sequence (P17787 26-502): as the sequence (P17787 26-502) above
T4 sequence (P32297 32-505): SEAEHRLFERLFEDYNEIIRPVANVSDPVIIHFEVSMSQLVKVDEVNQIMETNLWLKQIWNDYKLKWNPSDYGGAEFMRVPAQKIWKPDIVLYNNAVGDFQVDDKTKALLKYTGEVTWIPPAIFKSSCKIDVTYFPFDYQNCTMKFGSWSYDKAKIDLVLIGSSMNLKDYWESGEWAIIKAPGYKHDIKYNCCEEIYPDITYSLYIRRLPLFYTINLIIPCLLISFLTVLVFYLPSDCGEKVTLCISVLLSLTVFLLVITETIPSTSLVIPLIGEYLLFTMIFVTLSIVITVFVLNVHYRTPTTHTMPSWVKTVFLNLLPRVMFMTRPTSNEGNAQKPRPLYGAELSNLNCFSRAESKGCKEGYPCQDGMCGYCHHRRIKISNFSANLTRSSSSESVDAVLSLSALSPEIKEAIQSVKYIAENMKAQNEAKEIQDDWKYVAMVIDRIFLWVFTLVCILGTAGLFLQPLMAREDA
T4 sequence (P30532 23-468 partner): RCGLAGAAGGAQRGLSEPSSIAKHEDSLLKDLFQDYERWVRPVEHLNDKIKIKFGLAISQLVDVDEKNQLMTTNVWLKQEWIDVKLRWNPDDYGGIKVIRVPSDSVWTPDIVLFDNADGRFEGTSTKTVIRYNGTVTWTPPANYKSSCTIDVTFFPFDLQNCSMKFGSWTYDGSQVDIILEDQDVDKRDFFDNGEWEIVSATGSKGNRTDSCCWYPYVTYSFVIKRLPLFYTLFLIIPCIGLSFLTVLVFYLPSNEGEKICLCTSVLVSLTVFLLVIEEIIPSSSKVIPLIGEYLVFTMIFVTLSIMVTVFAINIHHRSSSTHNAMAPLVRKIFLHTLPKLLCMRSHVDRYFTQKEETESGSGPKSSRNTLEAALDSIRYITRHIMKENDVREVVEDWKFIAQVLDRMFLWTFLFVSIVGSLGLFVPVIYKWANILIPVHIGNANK
T4 sequence (P30926 22-498): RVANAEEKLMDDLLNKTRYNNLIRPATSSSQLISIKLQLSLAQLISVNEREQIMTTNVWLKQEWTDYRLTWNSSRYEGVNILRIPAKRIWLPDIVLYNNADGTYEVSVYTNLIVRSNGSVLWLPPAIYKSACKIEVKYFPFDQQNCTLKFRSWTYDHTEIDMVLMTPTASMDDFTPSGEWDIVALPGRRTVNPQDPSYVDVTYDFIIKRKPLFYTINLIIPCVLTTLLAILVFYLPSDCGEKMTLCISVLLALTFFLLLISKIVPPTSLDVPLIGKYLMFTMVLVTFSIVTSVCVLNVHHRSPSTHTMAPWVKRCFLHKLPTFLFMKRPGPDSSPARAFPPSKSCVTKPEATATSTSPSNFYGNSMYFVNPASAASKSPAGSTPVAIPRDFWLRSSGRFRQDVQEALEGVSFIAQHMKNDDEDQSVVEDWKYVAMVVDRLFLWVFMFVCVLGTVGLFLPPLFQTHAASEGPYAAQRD
T2 sequence (P32297 32-505): as the sequence (P32297 32-505) above
T2 sequence (P30926 22-498): as the sequence (P30926 22-498) above
T7 sequence (Q15825 26-494): as the sequence (Q15825 26-494) above
T7 sequence (P17787 26-502): as the sequence (P17787 26-502) above
T6 sequence (P32297 32-505): as the sequence (P32297 32-505) above
T6 sequence (P17787 26-502): as the sequence (P17787 26-502) above

| SMILES | agonist characterisation at nAChR subtype alpha7 [1] | agonist characterisation at nAChR subtype alpha3beta4 [2] | agonist characterisation at nAChR subtype alpha4beta2 [3] | agonist characterisation at nAChR subtype alpha3alpha5beta4 [4] | agonist characterisation at nAChR subtype alpha4alpha6beta2 [5] | agonist characterisation at nAChR subtype alpha3beta2 [6] | agonist characterisation at nAChR subtype alpha6beta2 [7] | evoked current as % of the maximal ACh-evoked current [8] |
| --- | --- | --- | --- | --- | --- | --- | --- | --- |
| C(=C\[C@H]1CCNC1)/c1cncnc1 [Compound 1, (R)-5-((E)-2-pyrrolidin-3-ylvinyl)pyrimidine] | weak partial agonist | full agonist | full agonist | full agonist | full agonist | partial agonist |  |  |
| O=C(O)C(O)C(O)C(=O)O.c1cnc2cc3c(cc2n1)C1CNCC3C1 [Varenicline] | full agonist | partial agonist | partial agonist | partial agonist | partial agonist |  | partial agonist |  |
| C(=C\[C@H]1CCNC1)/c1cncnc1.O=C(O)CC(O)(CC(=O)O)C(=O)O [compound 1 citrate, (R)-5-((E)-2-pyrrolidin-3-ylvinyl)pyrimidine mono-citrate] |  |  |  |  |  |  |  | 25% |
